In ChEMBL document CHEMBL1125025, “11 beta-methoxy-, 11 beta-ethyl- and 17 alpha-ethynyl-substituted 16 alpha-fluoroestradiols: receptor-based imaging agents with enhanced uptake efficiency and selectivity” (J Med Chem, 1990) one finds relative binding affinity (RBA) data, which are given here for 8 compounds.

Test [1] has as its target T1, Alpha-fetoprotein (Rattus norvegicus) (UniProt P02773).
T1 sequence (whole entry): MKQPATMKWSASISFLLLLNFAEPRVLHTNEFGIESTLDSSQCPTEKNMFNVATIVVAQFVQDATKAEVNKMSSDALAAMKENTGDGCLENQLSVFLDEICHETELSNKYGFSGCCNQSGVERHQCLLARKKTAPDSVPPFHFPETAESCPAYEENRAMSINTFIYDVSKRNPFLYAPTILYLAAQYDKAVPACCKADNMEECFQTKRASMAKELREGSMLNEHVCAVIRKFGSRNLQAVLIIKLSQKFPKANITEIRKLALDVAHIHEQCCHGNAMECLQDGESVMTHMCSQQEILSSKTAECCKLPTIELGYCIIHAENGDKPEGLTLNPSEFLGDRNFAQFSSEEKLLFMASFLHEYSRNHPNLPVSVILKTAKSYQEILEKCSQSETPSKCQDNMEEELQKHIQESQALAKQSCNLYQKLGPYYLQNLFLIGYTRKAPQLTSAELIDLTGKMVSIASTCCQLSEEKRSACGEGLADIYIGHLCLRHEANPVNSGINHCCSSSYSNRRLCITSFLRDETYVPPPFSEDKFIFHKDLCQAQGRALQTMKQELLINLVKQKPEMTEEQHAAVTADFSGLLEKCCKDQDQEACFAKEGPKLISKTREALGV
Kind of test: Binding affinity against Alphafetoprotein (AFP), in rodents. Also noted: reference not given here.

For test [2], the target named is T2, Sex hormone-binding globulin (Homo sapiens) (UniProt P04278).
T2 sequence (whole entry): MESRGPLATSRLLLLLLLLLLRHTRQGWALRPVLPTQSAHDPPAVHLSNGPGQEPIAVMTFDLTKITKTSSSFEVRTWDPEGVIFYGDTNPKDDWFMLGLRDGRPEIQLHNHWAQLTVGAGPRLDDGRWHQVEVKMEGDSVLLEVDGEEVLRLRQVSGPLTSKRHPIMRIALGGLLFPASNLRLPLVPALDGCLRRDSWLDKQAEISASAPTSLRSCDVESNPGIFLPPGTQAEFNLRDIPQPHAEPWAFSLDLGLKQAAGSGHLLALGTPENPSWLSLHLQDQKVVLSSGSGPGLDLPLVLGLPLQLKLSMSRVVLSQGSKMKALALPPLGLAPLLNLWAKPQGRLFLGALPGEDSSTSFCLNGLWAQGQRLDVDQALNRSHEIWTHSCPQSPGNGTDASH
The test can be described thus: Binding affinity against Sex steroid binding protein(SBP) of human serum. Also noted: reference not given here.

For the compound `CC[C@H]1C[C@]2(C)[C@@H](O)[C@H](F)C[C@H]2[C@@H]2CCc3cc(O)ccc3[C@@H]12`, the relative binding affinity (RBA) in test [1] amounted to 1.47; in test [2] it was 2.24.
With `C[C@]12CC[C@@H]3c4ccc(O)cc4CC[C@H]3[C@@H]1CC[C@@H]2O`, the relative binding affinity (RBA) in test [1] and in test [2] was 100 each time.
Turning to `C#C[C@]1(O)[C@H](F)C[C@H]2[C@@H]3CCc4cc(O)ccc4[C@H]3CC[C@@]21C`, the relative binding affinity (RBA) in test [1] was 0.94; in test [2], 0.43.
For the compound `CO[C@H]1C[C@]2(C)[C@@H](O)[C@H](F)C[C@H]2[C@@H]2CCc3cc(O)ccc3[C@H]21`, the relative binding affinity (RBA) came out at 0.51 in test [1] and 0.53 in test [2].
The like results for `C#C[C@]1(O)CC[C@H]2[C@@H]3CCc4cc(O)ccc4[C@H]3CC[C@@]21C` were, in that order, 3.51 and 1.81.
With `CC[C@H]1C[C@]2(C)[C@@H](O)CC[C@H]2[C@@H]2CCc3cc(O)ccc3[C@@H]12`, the relative binding affinity (RBA) in test [1] is 1.21; in test [2] it was 40.8.
The like results for `CO[C@H]1C[C@]2(C)[C@@H](O)CC[C@H]2[C@@H]2CCc3cc(O)ccc3[C@H]21` were, in that order, 0.26 and 1.72.
For the compound `C[C@]12CC[C@@H]3c4ccc(O)cc4CC[C@H]3[C@@H]1C[C@@H](F)[C@@H]2O`, the relative binding affinity (RBA) in test [1] was 101; in test [2], 9.5.
